ChEMBL document CHEMBL6074686 (Eur J Med Chem, 2025)
Active and inactive are the calls of the source. No cut-off for these calls is given here.

What was measured:
[1] = tested on: SK-OV-3; test: Induction of apoptosis in human SK-OV-3 cells assessed as upregulation of Bax expression at 100 nM incubated for 24 hrs by Western blotting analysis; type: functional, cell-based
[2] = tested on: SK-OV-3; test: Induction of cell cycle arrest in human SK-OV-3 cells assessed as downregulation of Cdc-25c expression incubated for 24 hrs by Western blotting analysis; type: functional, cell-based; settings: dose 25-100 nM
[3] = tested on: MCF7; test: Inhibition of cell migration in human MCF7 cells assessed as area of migrated cells at 25 nM incubated for 24 hrs by crystal violet staining based inverted microscopic analysis (reference value: 18.5 +/- 0.3 mm^3); type: functional
[4] = tested on: SK-OV-3; test: Inhibition of cell migration in human SK-OV-3 cells assessed as wound closure ratio at 6.25 nM incubated for 24 hrs by wound healing assay (reference value: 100%); type: functional; set-up: scale not given: the % may be the effect or the level left
[5] = tested on: SK-OV-3; test: Inhibition of cell migration in human SK-OV-3 cells assessed as reduction in wound closure at 50 nM incubated for 24 hrs by wound healing assay (reference value: 21.8 +/- 7.6%); type: functional; settings: SK-OV-3, 24 h, values are per cent of control
[6] = tested on: SK-OV-3; test: Induction of cell cycle arrest in human SK-OV-3 cells assessed as decrease in Cyclin-B1 expression at 100 nM incubated for 24 hrs by Western blotting analysis; type: functional, cell-based
[7] = tested on: SK-OV-3; test: Inhibition of cell migration in human SK-OV-3 cells assessed as ratio of migrated cells at 20 nM incubated for 24 hrs by Transwell assay (reference value: 100 %); type: functional; set-up: scale not given: the % may be the effect or the level left
[8] = tested on: SK-OV-3; test: Induction of apoptosis in human SK-OV-3 cells assessed as upregulation of Bcl-2 expression at 100 nM incubated for 24 hrs by Western blotting analysis; type: functional, cell-based
[9] = tested on: SK-OV-3; test: Inhibition of cell migration in human SK-OV-3 cells incubated for 24 hrs by Transwell assay; type: functional, cell-based; settings: dose 10-20 nM
[10] = tested on: MCF7; test: Inhibition of cell migration in human MCF7 cells assessed as ratio of migrated cells at 50 nM incubated for 24 hrs by crystal violet staining based inverted microscopic analysis (reference value: 100%); type: functional; set-up: scale not given: the % may be the effect or the level left
[11] = tested on: MCF7; test: Induction of apoptosis in human MCF7 cells assessed as upregulation of Bax expression at 100 nM incubated for 24 hrs by Western blotting analysis; type: functional, cell-based
[12] = tested on: MCF7; test: Inhibition of cell migration in human MCF7 cells assessed as area of migrated cells at 50 nM incubated for 24 hrs by crystal violet staining based inverted microscopic analysis (reference value: 18.5 +/- 0.3 mm^3); type: functional
[13] = tested on: SK-OV-3; test: Inhibition of cell migration in human SK-OV-3 cells assessed as wound closure ratio at 25 nM incubated for 24 hrs by wound healing assay (reference value: 100%); type: functional; set-up: scale not given: the % may be the effect or the level left
[14] = tested on: MCF7; test: Inhibition of cell migration in human MCF7 cells assessed as ratio of migrated cells at 12.5 nM incubated for 24 hrs by crystal violet staining based inverted microscopic analysis (reference value: 100%); type: functional; set-up: scale not given: the % may be the effect or the level left
[15] = tested on: MCF7; test: Inhibition of cell migration in human MCF7 cells assessed as area of migrated cells at 12.5 nM incubated for 24 hrs by crystal violet staining based inverted microscopic analysis (reference value: 18.5 +/- 0.3 mm^3); type: functional
[16] = Toxicity in female BALB/c nude mouse xenografted with human SK-OV-3 cells assessed as animal death at 15 mg/kg, administered via tail vein for 5 days and measured daily; type: organism-based; settings: in vivo, iv, 120 h, time 5 day
[17] = tested on: SK-OV-3; test: Inhibition of cell migration in human SK-OV-3 cells assessed as decrease in cell density at 25 to 50 nM incubated for 24 hrs by wound healing assay; type: functional, cell-based; settings: dose 25-50 nM
[18] = tested on: SK-OV-3; test: Antitumor activity against human SK-OV-3 cells xenografted xenografted in female BALB/c nude mouse assessed as downregulation of Bcl-2 expression level in tumor at 5 to 10 mg/kg, […] via tail vein once every 2 to 3 days by immunohistochemistry analysis; type: functional, organism-based; settings: dose 5-10 mg/kg, time 2-3 day
[19] = tested on: SK-OV-3; test: Inhibition of cell migration in human SK-OV-3 cells assessed as ratio of migrated cells at 1.25 nM incubated for 24 hrs by Transwell assay (reference value: 100 %); type: functional; set-up: scale not given: the % may be the effect or the level left
[20] = tested on: MCF7; test: Inhibition of cell migration in human MCF7 cells assessed as wound closure at 20 nM incubated for 24 hrs by wound healing assay (reference value: 44.5 +/- 8.8%); type: functional; set-up: scale not given: the % may be the effect or the level left
[21] = tested on: SK-OV-3; test: Inhibition of cell migration in human SK-OV-3 cells assessed as reduction in wound closure at 3.125 nM incubated for 24 hrs by wound healing assay (reference value: 21.8 +/- 7.6%); type: functional; settings: SK-OV-3, 24 h, values are per cent of control
[22] = Toxicity in female BALB/c nude mouse xenografted with human SK-OV-3 cells assessed as pathological changes in spleen at 5 to 10 mg/kg, […] via tail vein once every 2 to 3 days by H and E staining based analysis; type: organism-based; settings: in vivo, dose lower 5 mg/kg, time lower 2 day, dose upper 10 mg/kg, time upper 3 day
[23] = tested on: MCF7; test: Inhibition of cell migration in human MCF7 cells assessed as wound closure ratio at 10 nM incubated for 24 hrs by wound healing assay (reference value: 100%); type: functional; set-up: scale not given: the % may be the effect or the level left
[24] = tested on: MCF7; test: Inhibition of colony formation in human MCF7 cells at 3.125 to 50 nM by crystal violet staining based assay; type: functional, cell-based; settings: dose 3.125-50 nM, time 0-72 hrs
[25] = tested on: SK-OV-3; test: Induction of cell cycle arrest in human SK-OV-3 cells assessed as upregulation of Cyclin-B1 expression at 25 to 50 nM incubated for 24 hrs by Western blotting analysis; type: functional, cell-based; settings: dose 25-50 nM
[26] = tested on: MCF7; test: Inhibition of cell migration in human MCF7 cells assessed as ratio of migrated cells at 3.125 nM incubated for 24 hrs by crystal violet staining based inverted microscopic analysis (reference value: 100%); type: functional; set-up: scale not given: the % may be the effect or the level left
[27] = Toxicity in female BALB/c nude mouse xenografted with human SK-OV-3 cells assessed as pathological changes in liver at 5 to 10 mg/kg, […] via tail vein once every 2 to 3 days by H and E staining based analysis; type: organism-based; settings: in vivo, dose lower 5 mg/kg, time lower 2 day, dose upper 10 mg/kg, time upper 3 day
[28] = tested on: MCF7; test: Inhibition of cell migration in human MCF7 cells assessed as increase in cell density at 0 to 10 nM incubated for 24 hrs by wound healing assay; type: functional, cell-based; settings: dose 0-10 nM
[29] = tested on: SK-OV-3; test: Inhibition of colony formation in human SK-OV-3 cells at 2.5 nM incubated for 12 days by crystal violet staining based assay relative to control; type: functional; settings: SK-OV-3, 288 h, time 12 day
[30] = tested on: MCF7; test: Inhibition of cell migration in human MCF7 cells assessed as wound closure at 1.25 nM incubated for 24 hrs by wound healing assay (reference value: 44.5 +/- 8.8%); type: functional; set-up: scale not given: the % may be the effect or the level left
[31] = tested on: MCF7; test: Inhibition of colony formation in human MCF7 cells at 25 nM incubated for 72 hrs by crystal violet staining based assay relative to control; type: functional
[32] = tested on: MCF7; test: Inhibition of colony formation in human MCF7 cells at 50 nM incubated for 72 hrs by crystal violet staining based assay relative to control; type: functional
[33] = tested on: MCF7; test: Antitumor activity against human MCF7 cells assessed as reduction in cell viability incubated for 72 hrs by CCK8 assay; type: functional, cell-based; settings: MCF7, 72 h
[34] = tested on: SK-OV-3; test: Induction of apoptosis in human SK-OV-3 cells assessed as increase in apoptotic cells incubated for 48 hrs by IncuCyte live-cell imaging analysis; type: functional, cell-based; settings: dose 2.5-40 nM

Question: For CNc1nc(N2CCCc3cc(OC)ccc32)c2cc(F)ccc2n1, which Activity [1] is on record?
Answer: Active

Question: What about the Activity [2] of the same compound?
Answer: Dose-dependent-effect

Question: And the Activity [3]?
Answer: 2.4 mm3

Question: And the Activity [4]?
Answer: 84.3%

Question: What about the response, % of control at 0.05 µM [5] of the same compound?
Answer: 4.9%

Question: What about the Activity [6] of the same compound?
Answer: Active

Question: What about the Activity [7] of the same compound?
Answer: 11.9%

Question: And the Activity [8]?
Answer: inactive

Question: What about the inhibition [9] of the same compound?
Answer: Dose-dependent-effect

Question: And the Activity [10]?
Answer: 11.7%

Question: And the Activity [11]?
Answer: Active

Question: And the Activity [12]?
Answer: 2.2 mm3

Question: And the Activity [13]?
Answer: 51.4%

Question: What about the Activity [14] of the same compound?
Answer: 60.4%

Question: And the Activity [15]?
Answer: 11.2 mm3

Question: And the Activity [16]?
Answer: Non-toxic

Question: And the inhibition [17]?
Answer: Active

Question: What about the Activity [18] of the same compound?
Answer: Active

Question: And the Activity [19]?
Answer: 72.3%

Question: What about the Activity [20] of the same compound?
Answer: 32.2%

Question: And the response, % of control at 0.003125 µM [21]?
Answer: 22.8%

Question: What about the Activity [22] of the same compound?
Answer: Non-toxic

Question: What about the Activity [23] of the same compound?
Answer: 104.4%

Question: What about the inhibition [24] of the same compound?
Answer: Time-dependent-effect

Question: And the Activity [25]?
Answer: inactive

Question: What about the Activity [26] of the same compound?
Answer: 94.5%

Question: What about the Activity [27] of the same compound?
Answer: Non-toxic

Question: What about the inhibition [28] of the same compound?
Answer: Active

Question: What about the inhibition at 0.0025 µM [29] of the same compound?
Answer: 56.2%

Question: What about the Activity [30] of the same compound?
Answer: 47%

Question: What about the inhibition at 0.025 µM [31] of the same compound?
Answer: 32.8%

Question: And the inhibition at 0.05 µM [32]?
Answer: 42.2%

Question: What about the IC50 [33] of the same compound?
Answer: 0.4 nM

Question: And the Activity [34]?
Answer: Dose-dependent-effect
